ChEMBL document CHEMBL1121526, “Use of acetylacetone to prepare a prodrug of cycloserine” (1980)

Key:
[1] = tested on: Escherichia coli; assay: antibacterial activity was reported as zones of inhibition in the disk diffusion assay using Escherichia coli; format: functional
[2] = species: Mus musculus; assay: The compound was tested for urinary recovery was assayed for its content of free cycloserine by employing the bioassay in mouse; format: functional, Urine
[3] = species: Mus musculus; assay: The compound was tested for urinary recovery was assayed for its content for total cycloserine content employing the chemical assay in mouse; format: functional, Urine
[4] = tested on: Staphylococcus aureus; assay: antibacterial activity was reported as zones of inhibition in the disk diffusion assay using staphylococcus aureus; format: functional

SMILES | Diameter [1] | Urinary recovery of free cycloserine [2] | Urinary recovery of total cycloserine [3] | Diameter [4]
CNC(=O)NC1CON(C(=O)NC)C1=O (stereo not given) | < 6 mm | <1% | <1% | < 6 mm
O=C(CCl)NC1CON(C(=O)CCl)C1=O (stereo not given) | < 6 mm | 1.1% | 43% | < 6 mm
C/C(O)=C\C(C)=N\C1CONC1=O (stereo not given) | 39 mm | 93% | 64% | 36 mm
CCOC(=O)NC1CONC1=O (stereo not given) | < 6 mm | <1% | 33% | < 6 mm
CC1(C)CC(O)=C/C(=N/C2CONC2=O)C1 (stereo not given) | < 6 mm | <1% | 55% | < 6 mm
O=C(CCl)NC1CONC1=O (stereo not given) | < 6 mm | 1% | 70% | < 6 mm
O=C(NC(=O)C(Cl)(Cl)Cl)NC1CONC1=O (stereo not given) | 14 mm | <1% | 55% | < 6 mm
O=C(NC1CONC1=O)C1CCCCC1 (stereo not given) | < 6 mm | 1% | 53% | < 6 mm
CNC(=O)NC1CONC1=O (stereo not given) | 22 mm | <1% | 16% | 25 mm
N[C@@H]1CONC1=O [CYCLOSERINE] | 39 mm | 64% | 45% | 36 mm
